From patent publication US6838236B1, “VPR function and activity” (priority 1993, dated 2005)

Tests used:
HIV-1 p24^gag antigen = experiment: HIV-1 p24gag antigen production, antigen-capture ELISA of culture medium; format: cell-based
[1] = system: human rhabdomyosarcoma cell line TE671; conditions: well-described phenomenon; cited from earlier work
OM-10.1 cells = experiment: Intracellular p24 fluorescence in OM-10.1 cells; format: cell-based; conditions: vpr supernatant versus control supernatant
Procedure: In other experiments, OM-10.1 cells, which are T lymphoid in origin, were treated with either control supernatant lacking vpr or vpr supernatant from baculovirus-infected cells. Cells are shown in visible light and stained for intracellular p24 detected by fluorescence microscopy. The intensity of fluorescence is a measure of the virus expression.

[2] = system: TE671 rhabdomyosarcoma cells; experiment: Biological activity of baculovirus vpr supernatant on TE671 cells; format: cell-based, human
From the text: Recombinant vpr protein can be tested for biological activity in tissue culture. Vpr and control supernatants were dialyzed against PBS and applied to TE671 rhabdomyosarcoma cells. TE671 cells differentiate and cease to proliferate when transfected with the vpr gene or infected with HIV (Gras-Masse et al., supra; Levy et al., supra). […] Cells exposed to vpr for 3 days were examined for the presence of adult muscle myosin, a differentiation marker for these cells (Aguanno et al., Cancer Res., 1990, 50, 3377).

[3] = continuous exposure to 20% vpr supernatant

Compound | increase in p24 release (HIV-1 p24^gag antigen; pNLpuroΔvpr-transfected cells exposed to phorbol ester) [fold] | p24 release (HIV-1 p24^gag antigen; undifferentiated pNLpuro-transfected cells exposed to phorbol ester) | morphology and growth of stimulated TE671 cells [1] | retrovirus expression, intracellular p24 fluorescence (OM-10.1 cells) | time to cessation of proliferation [2, 3] | time to morphological differentiation [2, 3] | effect on cell survival ([2]; exposure to greater than 20% supernatant)
CCCCCCCCCCCCCC(=O)O[C@@H]1[C@@H](C)[C@@]2(O)[C@@H](C=C(CO)C[C@]3(O)C(=O)C(C)=C[C@@H]23)[C@@H]2C(C)(C)[C@]12OC(C)=O [phorbol myristate acetate] | 3 | no measurable p24 release | increase in overall size and length, are often multinucleated, and display slowed proliferation |  |  |  | 
vpr protein: HIV-1 viral protein R produced in baculovirus-infected insect cells, used as supernatant or partially purified |  |  |  | induces a high level of retrovirus expression | approximately 3 days | 7-9 days | rapidly fatal
